For this assay, the target named is T1, NTRK3 (TRKC) (Homo sapiens, UniProt Q16288).
T1 construct: purchased Thermo Fisher Scientific (Life Technologies) SelectScreen
Nature of the assay: SelectScreen Z'LYTE. Format: biochemical. The procedure, abridged:
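Percent values come from Thermo SelectScreen profiling of NU5455, combining activity and binding assays. CSF1R was run in Z'LYTE format at Km app ATP, and CAMK1 in Adapta format with ATP listed at 10.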

T1 sequence (Q16288 32-839): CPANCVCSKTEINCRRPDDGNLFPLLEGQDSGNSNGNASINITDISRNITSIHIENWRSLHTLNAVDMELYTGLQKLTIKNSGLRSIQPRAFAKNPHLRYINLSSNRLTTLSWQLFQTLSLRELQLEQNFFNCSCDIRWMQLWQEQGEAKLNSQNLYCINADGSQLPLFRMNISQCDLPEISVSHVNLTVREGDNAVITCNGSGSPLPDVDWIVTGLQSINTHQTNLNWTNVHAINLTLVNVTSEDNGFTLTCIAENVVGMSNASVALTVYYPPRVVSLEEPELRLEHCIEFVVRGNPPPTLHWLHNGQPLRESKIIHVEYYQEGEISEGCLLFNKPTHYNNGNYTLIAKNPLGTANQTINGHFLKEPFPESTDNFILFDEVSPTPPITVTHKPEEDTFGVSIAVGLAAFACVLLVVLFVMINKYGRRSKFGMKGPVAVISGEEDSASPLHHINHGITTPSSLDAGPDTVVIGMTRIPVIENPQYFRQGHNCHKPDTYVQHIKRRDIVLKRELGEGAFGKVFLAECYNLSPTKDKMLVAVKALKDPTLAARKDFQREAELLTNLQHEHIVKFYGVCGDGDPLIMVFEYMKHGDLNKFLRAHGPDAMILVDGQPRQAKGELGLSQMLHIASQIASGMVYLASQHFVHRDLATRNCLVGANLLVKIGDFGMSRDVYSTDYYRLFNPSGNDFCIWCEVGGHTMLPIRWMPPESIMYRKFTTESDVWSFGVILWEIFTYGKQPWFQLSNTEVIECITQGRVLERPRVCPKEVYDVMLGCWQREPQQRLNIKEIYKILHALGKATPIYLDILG

One may read the inhibition as the share of the control response that was lost under treatment. Read a high inhibition as strong suppression. Compound `CN(C(=O)CN1CCOCC1)c1ccc2sc3c(-c4cccc5c(=O)cc(N6CC7CCC(C6)O7)oc45)cccc3c2c1` [NU5455] returned an inhibition at 1 µM of 0.4%.

The record behind these values is article PMC6934184, “Selective DNA-PKcs inhibition extends the therapeutic index of localized radiotherapy and chemotherapy” (The Journal of Clinical Investigation, 2019).
